Series [1] is described as follows: Toxicity in mouse assessed as induction of lethality. As to conditions: in vivo.
The nature of series [2]: Half life in mouse. The class given is ADME, organism-based. As to conditions: in vivo.
For series [3], the target named is Glutamate [NMDA] receptor. The series can be described thus: Antagonist activity at NMDA receptor (unknown origin) assessed as inhibition constant. The class given is protein-complex assay, Homo sapiens.

Results on one compound are retold here after ChEMBL document CHEMBL5260834, “Benzomorphan skeleton, a versatile scaffold for different targets: A comprehensive review” (Eur J Med Chem, 2018).

For the compound `CO[C@H](C)CN1CC[C@@]2(C)c3ccc(O)cc3C[C@@H]1C2(C)C`, the median lethal dose (LD50) – broadly, the dose expected to kill half of the subjects tested – in series [1] is 0.4 mg/kg. Further, the half-life (commonly how long it takes for the measured level to halve) in series [2] was 240 min. In series [3], the Ki (as a rule, a dissociation constant, usually derived from enzyme kinetics or from competition with a known ligand) turned out to be 4.5 nM.
